Reference: patent US20130053381A1, “2,4-DIOXO-1,4-DIHYDRO-2H-QUINAZOLIN-3-YL-SULFONAMIDE DERIVATIVES” (NOVARTIS AG, priority 2010, published 2013)
Like-named read-outs stand apart in the source and are kept apart here.

Test system: OF1 mice
Assay: Maximal electroshock test (MES Test)
Type: in vivo
Settings: Mus musculus, read-out: %-Protection; for responders at 50 mg/kg: p.o.
In short: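 Compound given p.o. (typically 50 mg/kg) 1 h before tonic-clonic convulsions were induced via temporal electrodes (50 Hz, 18 mA, 0.2 s); seizure lasting 3 s or less counted as protection. Read-out is percent protected of five mice per condition; ED50 calculated, blood exposure sampled after shock.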

[1] = po, 50 mg/kg, pre-treatment time −1 h
[2] = dose of up to 50 mg/kg, 1 hour prior to induction of convulsions

Structure (SMILES)	responders at 50 mg/kg [1] [%]	further results
CCn1nccc1-c1cc2c(=O)n(NS(C)(=O)=O)c(=O)[nH]c2cc1C(F)(F)F [Example 15.0, N-[6-(2-Ethyl-2H-pyrazol-3-yl)-2,4-dioxo-7-trifluoromethyl-1,4-dihydro-2H-quinazolin-3-yl]-methanesulfonamide]	0	
CCCOC(=O)N(n1c(=O)[nH]c2cc(CC)c(-c3ccnn3CC)cc2c1=O)S(C)(=O)=O [Methanesulfonyl-[7-ethyl-6-(2-ethyl-2H-pyrazol-3-yl)-2,4-dioxo-1,4-dihydro-2H-quinazolin-3-yl]carbamic acid propyl ester]		responders at 50 mg/kg [2]: 0%
CCOC(=O)N(n1c(=O)[nH]c2cc(C(F)(F)F)c(-c3ccnn3C(C)C)cc2c1=O)S(C)(=O)=O [Example 5.06, [6-(2-Isopropyl-2H-pyrazol-3-yl)-2,4-dioxo-7-trifluoromethyl-1,4-dihydro-2H-quinazolin-3-yl]-methanesulfonyl-carbamic acid ethyl ester]	60	
CCCCCC(=O)N(n1c(=O)[nH]c2cc(C(F)(F)F)c(-c3ccnn3C)cc2c1=O)S(C)(=O)=O [Example 1.04, N-Hexanoyl-N-[6-(2-methyl-2H-pyrazol-3-yl)-2,4-dioxo-7-trifluoromethyl-1,4-dihydro-2H-quinazolin-3-yl]-methanesulfonamide]	80	
COC(=O)N(n1c(=O)[nH]c2cc(C(C)C)c(-c3ccnn3C)cc2c1=O)S(C)(=O)=O [Example 3.05, [7-Isopropyl-6-(2-methyl-2H-pyrazol-3-yl)-2,4-dioxo-1,4-dihydro-2H-quinazolin-3-yl]-methanesulfonyl-carbamic acid methyl ester]		responders at 15 mg/kg (po, Dose: 15 mg/kg, p.o. (footnote c), pre-treatment time −1 h): 60%
CCn1nccc1-c1cc2c(=O)n(N(C(=O)OC)S(C)(=O)=O)c(=O)[nH]c2cc1C(F)(F)F [Example 15.01, [6-(2-Ethyl-2H-pyrazol-3-yl)-2,4-dioxo-7-trifluoromethyl-1,4-dihydro-2H-quinazolin-3-yl]-methanesulfonyl-carbamic acid methyl ester]	40	
CCCC(=O)N(n1c(=O)[nH]c2cc(C(F)(F)F)c([C@H]3CCCO3)cc2c1=O)S(C)(=O)=O [Example 10.03]	100	responders at 50 mg/kg (po, 50 mg/kg, pre-treatment time −0.5 h (footnote d)): 60%
CCOC(=O)CCCC(=O)N(n1c(=O)[nH]c2cc(C(F)(F)F)c(-c3ccnn3C(C)C)cc2c1=O)S(C)(=O)=O [Example 5.11, 5-{[6-(2-Isopropyl-2H-pyrazol-3-yl)-2,4-dioxo-7-trifluoromethyl-1,4-dihydro-2H-quinazolin-3-yl]-methanesulfonyl-amino}-5-oxo-pentanoic acid ethyl ester]	40	
CCCOC(=O)N(n1c(=O)[nH]c2cc(C(F)(F)F)c(-n3ccnc3C)cc2c1=O)S(C)(=O)=O [Example 7.03, Methanesulfonyl-[6-(2-methyl-imidazol-1-yl)-2,4-dioxo-7-trifluoromethyl-1,4-dihydro-2H-quinazolin-3-yl]-carbamic acid propyl ester]	40	
CCn1nccc1-c1cc2c(=O)n(N(C(C)=O)S(C)(=O)=O)c(=O)[nH]c2cc1C(F)F [N-Acetyl-N-[7-difluoromethyl-6-(2-ethyl-2H-pyrazol-3-yl)-2,4-dioxo-1,4-dihydro-2H-quinazolin-3-yl]-methanesulfonamide]		responders at 50 mg/kg [2]: 0%
CCC(O)c1cc2c(=O)n(N(C(=O)OCCOC)S(C)(=O)=O)c(=O)[nH]c2cc1C(F)(F)F (centres unmarked) [Example 12.02, Methanesulfonyl-[6-(1-hydroxy-propyl)-2,4-dioxo-7-trifluoromethyl-1,4-dihydro-2H-quinazolin-3-yl]-carbamic acid 2-methoxy-ethyl ester]	20	
CCCCOC(=O)N(n1c(=O)[nH]c2cc(C(F)(F)F)c(C(CC)OC)cc2c1=O)S(C)(=O)=O (centres unmarked) [Example 11.11, Methanesulfonyl-[6-(1-methoxy-propyl)-2,4-dioxo-7-trifluoromethyl-1,4-dihydro-2H-quinazolin-3-yl]-carbamic acid butyl ester]	60	
CCOC(=O)N(n1c(=O)[nH]c2cc(C(F)(F)F)c(C(CC)OC)cc2c1=O)S(C)(=O)=O (centres unmarked) [Example 11.03, Methanesulfonyl-[6-(1-methoxy-propyl)-2,4-dioxo-7-trifluoromethyl-1,4-dihydro-2H-quinazolin-3-yl]-carbamic acid ethyl ester]	80	
CC(=O)n1c(=O)n(N(C(=O)OCc2ccccc2)S(C)(=O)=O)c(=O)c2cc(-c3ccnn3C)c(C(C)C)cc21 [Example 3.27, [1-Acetyl-7-isopropyl-6-(2-methyl-2H-pyrazol-3-yl)-2,4-dioxo-1,4-dihydro-2H-quinazolin-3-yl]-methanesulfonyl-carbamic acid benzyl ester]	100	
CCCCCCOC(=O)N(n1c(=O)[nH]c2cc(CC)c(-c3ccnn3C)cc2c1=O)S(C)(=O)=O [Methanesulfonyl-[7-ethyl-6-(2-methyl-2H-pyrazol-3-yl)-2,4-dioxo-1,4-dihydro-2H-quinazolin-3-yl]carbamic acid hexyl ester]		responders at 50 mg/kg [2]: 0%
CC(C)c1cc2[nH]c(=O)n(N(C(=O)CCCOCc3ccccc3)S(C)(=O)=O)c(=O)c2cc1-c1ccnn1C [Example 3.30, N-(4-Benzyloxy-butyryl)-N-[7-isopropyl-6-(2-methyl-2H-pyrazol-3-yl)-2,4-dioxo-1,4-dihydro-2H-quinazolin-3-yl]-methanesulfonamide]	100	
CC(C)COC(=O)N(n1c(=O)[nH]c2cc(C(F)(F)F)c([C@H]3CCCO3)cc2c1=O)S(C)(=O)=O [Example 10.08, Methanesulfonyl-N—((R)-2,4-dioxo-6-tetrahydro-furan-2-yl-7-trifluoromethyl-1,4-dihydro-2H-quinazolin-3-yl)-carbamic acid isobutyl ester]	20	
CCCCOC(=O)N(n1c(=O)[nH]c2cc(C(C)C)c(-c3ccnn3C)cc2c1=O)S(C)(=O)=O [Example 3.21, [7-Isopropyl-6-(2-methyl-2H-pyrazol-3-yl)-2,4-dioxo-1,4-dihydro-2H-quinazolin-3-yl]-methanesulfonyl-carbamic acid butyl ester]	100	
CC(=O)N(n1c(=O)[nH]c2cc(C(F)(F)F)c(-n3ccnc3)cc2c1=O)S(C)(=O)=O [Example 4.03, N-Acetyl-N-(6-imidazol-1-yl-2,4-dioxo-7-trifluoromethyl-1,4-dihydro-2H-quinazolin-3-yl)-methanesulfonamide]	40	
CCOC(=O)N(n1c(=O)[nH]c2cc(CC)c(-c3ccnn3CC)cc2c1=O)S(C)(=O)=O [Methanesulfonyl-[7-ethyl-6-(2-ethyl-2H-pyrazol-3-yl)-2,4-dioxo-1,4-dihydro-2H-quinazolin-3-yl]carbamic acid ethyl ester]		responders at 50 mg/kg [2]: 0%
CCc1cc2[nH]c(=O)n(N(C(=O)OCCOC)S(C)(=O)=O)c(=O)c2cc1-c1ccnn1CC [Methanesulfonyl-[7-ethyl-6-(2-ethyl-2H-pyrazol-3-yl)-2,4-dioxo-1,4-dihydro-2H-quinazolin-3-yl]carbamic acid 2-methoxy-ethyl ester]		responders at 50 mg/kg [2]: 0%
CCCC(=O)N(n1c(=O)[nH]c2cc(CC)c(-c3ccnn3CC)cc2c1=O)S(C)(=O)=O [N-Butyryl-N-[7-ethyl-6-(2-ethyl-2H-pyrazol-3-yl)-2,4-dioxo-1,4-dihydro-2H-quinazolin-3-yl]-methanesulfonamide]		responders at 50 mg/kg [2]: 0%
